Test results published in PubChem BioAssay (NCI).
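Five concentrations, 48 hours, 96-well plates. GI50 is the concentration that inhibits growth by half. At the TGI there is no net growth.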

Experiments:
Assay in all cases: NCI-60 cell line screen, 48 h
MDA-MB-435 = test system: MDA-MB-435
SF-295 CNS = test system: SF-295 CNS
CCRF-CEM leukemia = test system: CCRF-CEM leukemia
T-47D breast = test system: T-47D breast
SK-MEL-5 melanoma = test system: SK-MEL-5 melanoma
COLO 205 colon = test system: COLO 205 colon
NCI-H522 lung = test system: NCI-H522 lung
NCI-H23 lung = test system: NCI-H23 lung
NCI/ADR-RES ovarian = test system: NCI/ADR-RES ovarian
RXF 393 renal = test system: RXF 393 renal
SNB-75 CNS = test system: SNB-75 CNS
SK-OV-3 ovarian = test system: SK-OV-3 ovarian
HS 578T breast = test system: HS 578T breast
UACC-62 melanoma = test system: UACC-62 melanoma
HCC-2998 colon = test system: HCC-2998 colon
UACC-257 melanoma = test system: UACC-257 melanoma
MCF7 breast = test system: MCF7 breast
TK-10 renal = test system: TK-10 renal
EKVX NSCLC = test system: EKVX NSCLC
RPMI-8226 leukemia = test system: RPMI-8226 leukemia
SN12C renal = test system: SN12C renal
CAKI-1 renal = test system: CAKI-1 renal
OVCAR-5 ovarian = test system: OVCAR-5 ovarian
HOP-92 NSCLC = test system: HOP-92 NSCLC
KM12 colon = test system: KM12 colon
A498 renal = test system: A498 renal
NCI-H226 lung = test system: NCI-H226 lung
A549 NSCLC = test system: A549 NSCLC
HT29 colon = test system: HT29 colon
U251 CNS = test system: U251 CNS
SNB-19 CNS = test system: SNB-19 CNS
MDA-MB-231 breast = test system: MDA-MB-231 breast
UO-31 renal = test system: UO-31 renal
SF-539 CNS = test system: SF-539 CNS
MOLT-4 leukemia = test system: MOLT-4 leukemia
IGROV1 ovarian = test system: IGROV1 ovarian
OVCAR-8 ovarian = test system: OVCAR-8 ovarian
BT-549 breast = test system: BT-549 breast
DU-145 prostate = test system: DU-145 prostate
OVCAR-3 ovarian = test system: OVCAR-3 ovarian
MALME-3M melanoma = test system: MALME-3M melanoma
SK-MEL-2 melanoma = test system: SK-MEL-2 melanoma
HL-60(TB) leukemia = test system: HL-60(TB) leukemia
SK-MEL-28 melanoma = test system: SK-MEL-28 melanoma
PC-3 prostate = test system: PC-3 prostate
OVCAR-4 ovarian = test system: OVCAR-4 ovarian
ACHN renal = test system: ACHN renal
786-0 renal = test system: 786-0 renal
SW-620 colon = test system: SW-620 colon
LOX IMVI melanoma = test system: LOX IMVI melanoma
HCT-15 colon = test system: HCT-15 colon
K-562 leukemia = test system: K-562 leukemia
SF-268 CNS = test system: SF-268 CNS
NCI-H460 lung = test system: NCI-H460 lung
HOP-62 NSCLC = test system: HOP-62 NSCLC
M14 melanoma = test system: M14 melanoma

In the case of Clc1nc(Cl)c2ncn(C/C=C\COc3cccc(OC/C=C\Cn4cnc5c(Cl)nc(Cl)nc54)c3)c2n1, the GI50 (MDA-MB-435) is reported as over 100 µM, the TGI (MDA-MB-435) is reported as over 100 µM and the GI50 (SF-295 CNS) is reported as over 100 µM. For the same molecule, the TGI (SF-295 CNS) was over 100 µM, the GI50 (CCRF-CEM leukemia) was 95.8 µM and the TGI (CCRF-CEM leukemia) was over 100 µM. The GI50 (T-47D breast) was 88.1 µM, the TGI (T-47D breast) was over 100 µM and the GI50 (SK-MEL-5 melanoma) was over 100 µM. For the same molecule, the TGI (SK-MEL-5 melanoma) was over 100 µM, the GI50 (COLO 205 colon) was over 100 µM and the TGI (COLO 205 colon) was over 100 µM. For the same molecule, the GI50 (NCI-H522 lung) was over 100 µM, the TGI (NCI-H522 lung) was over 100 µM and the GI50 (NCI-H23 lung) was over 100 µM. For the same molecule, the TGI (NCI-H23 lung) was over 100 µM, the GI50 (NCI/ADR-RES ovarian) was over 100 µM and the TGI (NCI/ADR-RES ovarian) was over 100 µM. It also gave a GI50 (RXF 393 renal) of 48.8 µM, a TGI (RXF 393 renal) of over 100 µM and a GI50 (SNB-75 CNS) of over 100 µM. For the same molecule, the TGI (SNB-75 CNS) was over 100 µM, the GI50 (SK-OV-3 ovarian) was over 100 µM and the TGI (SK-OV-3 ovarian) was over 100 µM. It also gave a GI50 (HS 578T breast) of over 100 µM, a TGI (HS 578T breast) of over 100 µM and a GI50 (UACC-62 melanoma) of over 100 µM. The TGI (UACC-62 melanoma) was over 100 µM, the GI50 (HCC-2998 colon) was over 100 µM and the TGI (HCC-2998 colon) was over 100 µM. For the same molecule, the GI50 (UACC-257 melanoma) was over 100 µM, the TGI (UACC-257 melanoma) was over 100 µM and the GI50 (MCF7 breast) was over 100 µM. It also gave a TGI (MCF7 breast) of over 100 µM, a GI50 (TK-10 renal) of over 100 µM and a TGI (TK-10 renal) of over 100 µM. It also gave a GI50 (EKVX NSCLC) of over 100 µM, a TGI (EKVX NSCLC) of over 100 µM and a GI50 (RPMI-8226 leukemia) of over 100 µM. The TGI (RPMI-8226 leukemia) was over 100 µM, the GI50 (SN12C renal) was over 100 µM and the TGI (SN12C renal) was over 100 µM. The GI50 (CAKI-1 renal) was over 100 µM, the TGI (CAKI-1 renal) was over 100 µM and the GI50 (OVCAR-5 ovarian) was over 100 µM. The TGI (OVCAR-5 ovarian) was over 100 µM, the GI50 (HOP-92 NSCLC) was over 100 µM and the TGI (HOP-92 NSCLC) was over 100 µM. It also gave a GI50 (KM12 colon) of over 100 µM, a TGI (KM12 colon) of over 100 µM and a GI50 (A498 renal) of over 100 µM. The TGI (A498 renal) was over 100 µM, the GI50 (NCI-H226 lung) was 43.3 µM and the TGI (NCI-H226 lung) was over 100 µM. The GI50 (A549 NSCLC) was over 100 µM, the TGI (A549 NSCLC) was over 100 µM and the GI50 (HT29 colon) was over 100 µM. It also gave a TGI (HT29 colon) of over 100 µM, a GI50 (U251 CNS) of over 100 µM and a TGI (U251 CNS) of over 100 µM. The GI50 (SNB-19 CNS) was over 100 µM, the TGI (SNB-19 CNS) was over 100 µM and the GI50 (MDA-MB-231 breast) was over 100 µM. For the same molecule, the TGI (MDA-MB-231 breast) was over 100 µM, the GI50 (UO-31 renal) was over 100 µM and the TGI (UO-31 renal) was over 100 µM. The GI50 (SF-539 CNS) was over 100 µM, the TGI (SF-539 CNS) was over 100 µM and the GI50 (MOLT-4 leukemia) was over 100 µM. It also gave a TGI (MOLT-4 leukemia) of over 100 µM, a GI50 (IGROV1 ovarian) of over 100 µM and a TGI (IGROV1 ovarian) of over 100 µM. For the same molecule, the GI50 (OVCAR-8 ovarian) was over 100 µM, the TGI (OVCAR-8 ovarian) was over 100 µM and the GI50 (BT-549 breast) was over 100 µM. The TGI (BT-549 breast) was over 100 µM, the GI50 (DU-145 prostate) was over 100 µM and the TGI (DU-145 prostate) was over 100 µM. It also gave a GI50 (OVCAR-3 ovarian) of over 100 µM, a TGI (OVCAR-3 ovarian) of over 100 µM and a GI50 (MALME-3M melanoma) of over 100 µM. The TGI (MALME-3M melanoma) was over 100 µM, the GI50 (SK-MEL-2 melanoma) was over 100 µM and the TGI (SK-MEL-2 melanoma) was over 100 µM. For the same molecule, the GI50 (HL-60(TB) leukemia) was over 100 µM, the TGI (HL-60(TB) leukemia) was over 100 µM and the GI50 (SK-MEL-28 melanoma) was over 100 µM. For the same molecule, the TGI (SK-MEL-28 melanoma) was over 100 µM, the GI50 (PC-3 prostate) was over 100 µM and the TGI (PC-3 prostate) was over 100 µM. For the same molecule, the GI50 (OVCAR-4 ovarian) was over 100 µM, the TGI (OVCAR-4 ovarian) was over 100 µM and the GI50 (ACHN renal) was over 100 µM. It also gave a TGI (ACHN renal) of over 100 µM, a GI50 (786-0 renal) of over 100 µM and a TGI (786-0 renal) of over 100 µM. The GI50 (SW-620 colon) was over 100 µM, the TGI (SW-620 colon) was over 100 µM and the GI50 (LOX IMVI melanoma) was 19.3 µM. It also gave a TGI (LOX IMVI melanoma) of 43.8 µM, a GI50 (HCT-15 colon) of over 100 µM and a TGI (HCT-15 colon) of over 100 µM. For the same molecule, the GI50 (K-562 leukemia) was 53.8 µM, the TGI (K-562 leukemia) was over 100 µM and the GI50 (SF-268 CNS) was over 100 µM. It also gave a TGI (SF-268 CNS) of over 100 µM, a GI50 (NCI-H460 lung) of over 100 µM and a TGI (NCI-H460 lung) of over 100 µM. The GI50 (HOP-62 NSCLC) was over 100 µM, the TGI (HOP-62 NSCLC) was over 100 µM and the GI50 (M14 melanoma) was over 100 µM. The TGI (M14 melanoma) was over 100 µM.
